Laboratory results published in ChEMBL document CHEMBL1128101, “Cycloproctolin and [-Methyl-l-Tyr]-proctolin are potent antagonists of proctolin-induced inositol phosphate production in locust foregut homogenates” (1995).
Where a SMILES comes first, the peptide text is derived from it.

Assays:
Assay type in all cases: functional
[1] = tested on: Schistocerca gregaria; assay: Tested for dose dependent release of inositol phosphate (InsP4) at 1 uM
[2] = tested on: Schistocerca gregaria; assay: Tested for dose dependent release of inositol phosphate (InsP3) at 10 nM
[3] = tested on: Schistocerca gregaria; assay: Tested for dose dependent release of inositol phosphate (InsP3) at 1 uM
[4] = tested on: Schistocerca gregaria; assay: Tested for dose dependent release of inositol phosphate (InsP4) at 10 nM
[5] = tested on: Schistocerca gregaria; assay: Tested for dose dependent release of inositol phosphate (InsP4) at 1 uM in the presence of compound 1 (0.5 uM)
[6] = tested on: Schistocerca gregaria; assay: Tested for dose dependent release of inositol phosphate (InsP3) at 1 uM in the presence of compound 1 (0.5 uM)
[7] = tested on: Schistocerca gregaria; assay: Tested for dose dependent release of inositol phosphate (InsP3) at 0.5 uM
[8] = tested on: Schistocerca gregaria; assay: Tested for dose dependent release of inositol phosphate (InsP4) at 0.5 uM

Row | Molecule | Increase in DPM [1] | Increase in DPM [2] | Increase in DPM [3] | Increase in DPM [4] | Increase in DPM [5] | Increase in DPM [6] | Increase in DPM [7] | Increase in DPM [8]
1 | CC(C)C[C@@H](NC(=O)[C@@](C)(Cc1ccc(O)cc1)NC(=O)[C@@H](N)CCCN=C(N)N)C(=O)N1CCC[C@@H]1C(=O)N[C@H](C(=O)O)[C@H](C)O | 250 (mg of protein)-1 | 500 (mg of protein)-1 | 400 (mg of protein)-1 | 250 (mg of protein)-1 | – | – | – | –
2 | CC(C)C[C@@H]1NC(=O)[C@H](Cc2ccc(O)cc2)NC(=O)[C@H](CCCN=C(N)N)NC(=O)[C@H]([C@@H](C)O)NC(=O)[C@@H]2CCCN2C1=O (HELM PEPTIDE1{L.P.T.R.Y}$PEPTIDE1,PEPTIDE1,1:R1-5:R2$$$V2.0) | 300 (mg of protein)-1 | 1200 (mg of protein)-1 | 500 (mg of protein)-1 | 750 (mg of protein)-1 | – | – | – | –
3 | CC(C)C[C@H](NC(=O)[C@H](Cc1ccc(O)cc1)N(C)C(=O)[C@@H](N)CCCN=C(N)N)C(=O)N1CCC[C@H]1C(=O)N[C@H](C(=O)O)[C@@H](C)O (HELM PEPTIDE1{R.[meY].L.P.T}$$$$V2.0) | – | – | – | – | 1500 (mg of protein)-1 | 3600 (mg of protein)-1 | – | –
4 | H-RYLPT-OH | – | 1250 (mg of protein)-1 | – | 1100 (mg of protein)-1 | – | – | 3400 (mg of protein)-1 | 1600 (mg of protein)-1
